Assay results from patent US20080076847A1, “Polymerizable compositions with acylgermanes as initiatiors” (IVOCLAR VIVADENT AG, priority 2006, published 2008).
Like-named read-outs stand apart in the source and are kept apart here.

Key:
[1] = Photoinitiator activity by photo-DSC
Experimental: The activity of the photoinitiators was measured by means of photo-DSC (Differential Scanning Calorimetry) measurements on a DSC-50 device from Shimadzu, wherein the samples were irradiated alternatively with different dental lamps (Astalis 3: halogen lamp, wavelength range 400-500 nm, intensity 530 mW/cm^2; Bluephase C8: LED, wavelength range 430-490 nm, intensity 1100 mW/cm^2; Ivoclar Vivadent AG). The activity is characterized by the time of peak maximum (tmax), the polymerization rate (RP) which corresponds to the peak height, and the double bond conversion (DBC). The respective photoinitiators were dissolved in a resin mixture of D3MA:UDMA:bis-GMA=1:1:1 and then measured in an aluminium crucible by means of DSC. […]

[2] = UV-VIS absorption maximum; assay type: physicochemical; conditions: longest-wave maximum
[3] = known photoinitiators, longest-wave maximum; cited from earlier work
[4] = Astralis 3 lamp (400-500 nm), 0.022 mmol PI per gram of resin
[5] = Bluephase C8 lamp (430-490 nm), 0.022 mmol PI per gram of resin

Structure (SMILES)	DBC (double bond conversion) [1, 4] [%]	Rp × 10^−3 (polymerization rate) [1, 4]	DBC (double bond conversion) [1, 5] [%]	Rp × 10^−3 (polymerization rate) [1, 5]	DBC (double bond conversion) ([1]; PI concentration 0.0014 mmol/g) [%]	Rp × 10^−3 (polymerization rate) ([1]; PI concentration 0.0014 mmol/g)	DBC (double bond conversion) ([1]; PI concentration 0.0055 mmol/g) [%]	Rp × 10^−3 (polymerization rate) ([1]; PI concentration 0.0055 mmol/g)	curing time compared with campherquinone/amine ([1]; resin mixture D3MA:UDMA:bis-GMA=1:1:1)	polymerization rate (Rp) compared with camphorquinone in combination with an amine accelerator ([1]; resin mixture D3MA:UDMA:bis-GMA=1:1:1, same formulation)	absorption maximum [2] [nm]	absorption maximum [3] [nm]
C[CH2][Ge]([CH2]C)([C](=O)c1ccccc1)[C](=O)c1ccccc1 [Bis-AG, bisbenzoyldiethylgermanium]	84	99.2 mol/(l × s)	72	98.5 mol/(l × s)	56	61.0 mol/(l × s)	66	85.6 mol/(l × s)	halved	almost double	418.5	
[CH3][Ge]([CH3])([CH3])[C](=O)c1ccccc1 [Mono-AG, benzoyltrimethylgermanium]	56	51.0 mol/(l × s)	49	48.3 mol/(l × s)	30	16.4 mol/(l × s)	48	36.2 mol/(l × s)			411.5	
CC12CCC(C(=O)C1=O)C2(C)C (stereo not drawn) [camphorquinone]												468
Cc1cc(C)c(C(=O)P(=O)(C(=O)c2c(C)cc(C)cc2C)c2ccccc2)c(C)c1 [Irg 819, bis(2,4,6-trimethylbenzoyl)phenylphosphine oxide, reference compound]	59	67.5 mol/(l × s)	45	43.5 mol/(l × s)	42	30.4 mol/(l × s)	48	48.3 mol/(l × s)				397
